Laboratory results taken from patent publication US20230399287A1, “NOVEL COMPOUNDS” (Sitryx Therapeutics Limited, priority 2020, published 2023).

How the values were obtained:
[1] = test system: hepatocytes; experiment: Hepatocyte stability assay (human); type: in vitro ADME; conditions: 10 μM compound, 60 min
Source text: (§1) Defrosted cryo-preserved hepatocytes (viability>70%) were used to determine the metabolic stability of a compound via calculation of intrinsic clearance (Clint; a measure of the removal of a compound from the liver in the absence of blood flow and cell binding). Clearance data are particularly important for in vitro work as they can be used in combination with in vivo data to predict the half-life and oral bioavailability of a drug.
(§2) The metabolic stability in hepatocytes assay involved a time-dependent reaction using both positive and negative controls. The cells must be pre-incubated at 37° C. then spiked with test compound (and positive control); samples taken at pre-determined time intervals were analysed to monitor the change in concentration of the initial drug compound over 60 minutes. A buffer incubation reaction (with no hepatocytes present) acted as a negative control and two cocktail solutions, containing compounds with known high and low clearance values (verapamil/7-hydroxycoumarin and propranolol/diltiazem), acted as positive controls. • 1. The assay was run with a cell concentration of 0.5×10^6 cells/mL in Leibovitz buffer. • 2. All compounds and controls were run in duplicate. • 3. Compound concentration was 10 μM. • 4. All compounds and controls were incubated with both cells and buffer to show turnover is due to hepatic metabolism. • 5. All wells on the incubation plate had 326.7 μL of either cells or buffer added. • 6. Prior to assay, cell and buffer-only incubation plates were preincubated for 10 mins at 37° C. • 7. The assay was initiated by adding compounds, 3.3 μL of 1 mM in 10% DMSO-90% Buffer; final DMSO concentration is 0.1%. • 8. Samples were taken at regular timepoints (0, 5, 10, 20, 40, 60 min) until 60 mins. • 9. Sample volume was 40 μL and added to 160 μL of crash solvent (acetonitrile with internal standard) and stored on ice. • 10. At the end of the assay, the crash plates were centrifuged at 3500 rpm for 20 mins at 4° C. • 11. 80 μL of clear supernatant was removed and mixed with 80 μL of deionised water before being analysed by LC-MS/MS.
(§3) Raw LC-MS/MS data were exported to, and analysed in, Microsoft Excel for determination of intrinsic clearance. The percentage remaining of a compound was monitored using the peak area of the initial concentration as 100%. Intrinsic clearance and half-life values were calculated using a graph of the natural log of percentage remaining versus the time of reaction in minutes. Half-life (min) and intrinsic clearance (Clint in μL min^−1 10^−6 cells) values were calculated using the gradient of the graph (the elimination rate constant, k) and Equations 1 and 2.

[2] = Hepatocyte stability assay (human); type: in vitro ADME; conditions: human, cryopreserved hepatocytes, 10 μM compound, 60 min, read-out: T½
Source text: as §1, §2, §3

[3] = test system: IL-6; experiment: THP-1 AlphaLISA IL-6 cytokine assay; type: cell-based; conditions: Homo sapiens, THP-1, differentiated THP-1 cells, LPS 24 hr then Nigericin 1 hour
Method: (§4) Measuring Inhibitory Effects on IL-1V and IL-6 Cytokine Output from THP-1s
(§5) The cytokine inhibition profiles of compounds of formula (I) were determined in a differentiated THP-1 cell assay. All assays were performed in RPMI-1640 growth medium (Gibco), supplemented with 10% fetal bovine serum (FBS; Gibco), 1% penicillin-streptomycin and 1% sodium pyruvate unless specified otherwise. The IL-1β and IL-6 cytokine inhibition assays were run in a background of differentiated THP-1 cells as described below. All reagents described were from Sigma-Aldrich unless specified otherwise. Compounds were prepared as 10 mM DMSO stocks.
(§6) THP-1 cells were expanded as a suspension up to 80% confluence in appropriate growth medium. Cells were harvested, suspended, and treated with an appropriate concentration of phorbol 12-myristate 13-acetate (PMA) over a 72 hr period (37° C./5% CO2).
(§7) Following 72 hrs of THP-1 cell incubation, cellular medium was removed and replaced with fresh growth media containing 1% of FBS. Working concentrations of compounds were prepared separately in 10% FBS treated growth medium and pre-incubated with the cells for 30 minutes (37° C./5% CO2). Following the 30 minute compound pre-incubation, THP-1s were treated with an appropriate concentration of LPS and the THP-1s were subsequently incubated for a 24 hr period (37° C./5% CO2). An appropriate final concentration of Nigericin was then dispensed into the THP-1 plates and incubated for 1 hour (37° C./5% CO2) before THP-1 supernatants were harvested and collected in separate polypropylene 96-well holding plates.
(§8) Reagents from each of the IL-1β and IL-6 commercial kits (Perkin Elmer) were prepared and run according to the manufacturer's instructions. Subsequently, fluorescence signal detection in a microplate reader was measured (EnVision® Multilabel Reader, Perkin Elmer).
(§9) Percentage inhibition was calculated per cytokine by normalising the sample data to the high and low controls used within each plate (+/−LPS respectively). Percentage inhibition was then plotted against compound concentration and the 50% inhibitory concentration ([…]) was determined from the resultant concentration-response curve.

[4] = test system: hepatocytes; experiment: Hepatocyte stability assay (mouse); type: in vitro ADME; conditions: 10 μM compound, 60 min
Source text: as §1, §2, §3

[5] = Hepatocyte stability assay (mouse); type: in vitro ADME; conditions: mouse, cryopreserved hepatocytes, 10 μM compound, 60 min, read-out: T½
Source text: as §1, §2, §3

[6] = test system: IL-1β; experiment: THP-1 AlphaLISA IL-1β cytokine assay; type: cell-based; conditions: Homo sapiens, THP-1, differentiated THP-1 cells
Method: as §4, §5, §6, §7, §8, §9

[7] = test system: NRF2; experiment: NRF2 +/- GSH activation assay (DiscoverX PathHunter NRF2 translocation kit); type: cell-based; conditions: for Emax: normalised to dimethyl fumarate high control; for EC50: Homo sapiens, U2OS, U2OS PathHunter cells
[8] = LPS 24 hr then Nigericin 1 hour

EC50 ([7]; +GSH) [µM] | EC50 ([7]; −GSH) [µM] | SMILES | Clint [1] [μL min^−1 10^−6 cells] | half-life at 10 μM [2] [h] | IC50 [3] [µM] | Clint [4] [μL min^−1 10^−6 cells] | half-life at 10 μM [5] [h] | IC50 [6, 8] [µM] | Emax ([7]; +GSH) [%] | Emax ([7]; −GSH) [%] | IC50 ([6]; data from repeated experiments) [µM]
– | – | C=C(CC(=O)OC1(c2ccc(C(F)(F)F)cc2)CC(C)C1)C(=O)O (single isomer, unassigned) [Example 44, 4-(3-methyl-1-(4-(trifluoromethyl)phenyl)cyclobutoxy)-2-methylene-4-oxobutanoic acid] | <3 | > 7.67 | > 100 | 9 | 2.33 | 5.1 | – | – | –
> 100 | > 100 | C=C(CC(=O)O[C@@H](C)c1ccc(C(F)(F)F)cc1)C(=O)O [Example 4, (S)-2-methylene-4-oxo-4-(1-(4-(trifluoromethyl)phenyl)ethoxy)butanoic acid] | 10 | 2.45 | > 56.2 | – | – | 1.9 | 0 | 4 | –
– | – | C=C(CC(=O)OC1(c2ccc(Br)cc2)CCC1)C(=O)O [Example 5, 4-(1-(4-bromophenyl)cyclobutoxy)-2-methylene-4-oxobutanoic acid] | 15 | 1.48 | > 31.6 | 25 | 1.13 | 0.7 | – | – | –
– | – | C=C(CC(=O)OC1(c2ccc(C(F)(F)F)c(F)c2)CCC1)C(=O)O [Example 17, 4-(1-(3-fluoro-4-(trifluoromethyl)phenyl)cyclobutoxy)-2-methylene-4-oxobutanoic acid] | 11 | 2.62 | > 31.6 | 9 | 3.53 | 2 | – | – | –
– | – | C=C(CC(=O)OC1(c2ccc(S(F)(F)(F)(F)F)cc2)CCC1)C(=O)O [Example 18, 2-methylene-4-oxo-4-(1-(4-(pentafluoro-λ^6-sulfaneyl)phenyl)cyclobutoxy)butanoic acid] | 8 | 3.63 | 62.1 | 50 | 0.633 | 1.8 | – | – | –
– | – | C=C(CC(=O)OC1(c2ccc(C(C)(F)F)cc2)CCC1)C(=O)O [Example 19, 4-(1-(4-(1,1-difluoroethyl)phenyl)cyclobutoxy)-2-methylene-4-oxobutanoic acid] | 4 | 7.45 | > 68.1 | 23 | 1.35 | 1.2 | – | – | –
– | – | C=C(CC(=O)OC1(c2ccc(C(F)F)cc2)CCC1)C(=O)O [Example 20, 4-(1-(4-(difluoromethyl)phenyl)cyclobutoxy)-2-methylene-4-oxobutanoic acid] | 4 | 7.45 | 48.7 | 13 | 2.33 | 3 | – | – | –
– | – | C=C(CC(=O)OC1(c2ccc(C(F)(F)F)nc2)CCC1)C(=O)O [Example 22, 2-methylene-4-oxo-4-(1-(6-(trifluoromethyl)pyridin-3-yl)cyclobutoxy)butanoic acid] | <3 | > 7.67 | > 100 | 4 | 8.87 | 5.1 | – | – | –
– | – | C=C(CC(=O)OC1(c2ccc(Br)cc2)COC1)C(=O)O [Example 23, 4-((3-(4-bromophenyl)oxetan-3-yl)oxy)-2-methylene-4-oxobutanoic acid] | <3 | > 7.67 | > 100 | 12 | 2.1 | 1.4 | – | – | –
– | – | C=C(CC(=O)OC1(c2ccc(C(F)(F)F)cc2)COC1)C(=O)O [Example 24, 2-methylene-4-oxo-4-((3-(4-(trifluoromethyl)phenyl)oxetan-3-yl)oxy)butanoic acid] | <3 | > 7.67 | > 100 | 11 | 2.42 | 1.4 | – | – | –
– | – | C=C(CC(=O)OC1(c2ccc(C#N)cc2)CCC1)C(=O)O [Example 25, 4-(1-(4-cyanophenyl)cyclobutoxy)-2-methylene-4-oxobutanoic acid] | 4 | 5.65 | > 100 | 9 | 2.95 | 15.5 | – | – | –
– | – | C=C(CC(=O)OC1(c2ccc(C(F)(F)F)cn2)CCC1)C(=O)O [Example 27, 2-methylene-4-oxo-4-(1-(5-(trifluoromethyl)pyridin-2-yl)cyclobutoxy)butanoic acid] | <3 | > 7.67 | > 100 | <3 | > 7.67 | 1.4 | – | – | 4
– | – | C=C(CC(=O)OC1(c2ccc(C(F)(F)F)cc2)CC(F)(F)C1)C(=O)O [Example 29, 4-(3,3-difluoro-1-(4-(trifluoromethyl)phenyl)cyclobutoxy)-2-methylene-4-oxobutanoic acid] | 11 | 2.38 | > 100 | 20 | 1.32 | 1.3 | – | – | –
– | – | C=C(C(=O)O)C(C)(C)C(=O)OC1(c2ccc(C(F)(F)F)cc2)CCC1 [Example 30, 3,3-dimethyl-2-methylene-4-oxo-4-(1-(4-(trifluoromethyl)phenyl)cyclobutoxy) butanoic acid] | 41 | 0.617 | > 100 | 104 | 0.25 | 1.2 | – | – | –
– | – | C=C(CC(=O)OC1(c2ccc(C(F)(F)C(F)(F)F)cc2)CCC1)C(=O)O [Example 31, 2-methylene-4-oxo-4-(1-(4-(perfluoroethyl)phenyl)cyclobutoxy)butanoic acid] | 11 | 2.33 | > 100 | 38 | 0.7 | 3.4 | – | – | –
– | – | C=C(CC(=O)OC1(c2ccc(C(F)(F)F)s2)CCC1)C(=O)O [Example 32, 2-methylene-4-oxo-4-(1-(5-(trifluoromethyl)thiophen-2-yl)cyclobutoxy)butanoic acid] | 17 | 1.53 | > 100 | 21 | 1.27 | 5.2 | – | – | –
